According to patent US20230357272A1, “OCTAHYDROPYRAZINODIAZANAPHTHYRIDINE DIONE COMPOUNDS” (MEDSHINE DISCOVERY INC., priority 2020, published 2023):

Each molecule was assayed on NCI-H358 cells (assay: Anti-proliferation experiment of H358 cells (CellTiter-Glo)). Conditions: Homo sapiens, 120 h, 5 days.
Type: cell-based
Method: RPMI-1640 culture medium, penicillin/streptomycin antibiotics purchased from Wisent, and fetal bovine serum purchased from Biosera. CellTiter-Glo (chemiluminescence detection reagent for cell viability) reagent purchased from Promega. NCI-H358 cell line purchased from the Cell Bank of the Chinese Academy of Sciences. Nivo multi-label analyzer (PerkinElmer).
NCI-H358 cells were seeded in a white 96-well plate with 80 μL of cell suspension per well, which contained 4000 NCI-H358 cells. The cell plate was incubated overnight in a carbon dioxide incubator.
(§1) The compounds to be tested were diluted 3-fold with a row gun to the ninth concentration, that is, from 2 mM to 304 nM, and a double-duplication experiment was set up. 78 μL of culture medium was added to a middle plate, and then 2 μL of gradient diluted compound per well was transferred to the middle plate according to the corresponding position. After being thoroughly mixed, 20 μL per well was transferred to the cell plate. The concentration range of the compound transferred to the cell plate was 10 μM to 1.52 nM. The cell plate was placed in the carbon dioxide incubator for 5 days. Another cell plate was prepared, and the signal value was read as the maximum value (Max value in the equation below) on the day of administration to participate in data analysis. 25 μL of cell viability chemiluminescence detection reagent was added to each well of the cell plate, and incubated at room temperature for 10 minutes to stabilize the luminescence signal. A multi-label analyzer was used for reading.
25 μL of cell viability chemiluminescence detection reagent was added to each well of the cell plate, and incubated at room temperature for 10 minutes to stabilize the luminescence signal. A multi-label analyzer was used for reading.
Using the equation (Sample−Min)/(Max−Min)*100% to convert the raw data into inhibition rate, and the value of IC50 might be obtained by curve fitting with four parameters (obtained by “log (inhibitor) vs. response—Variable slope” mode in GraphPad Prism). Table 1 provides the inhibitory activity of the compounds of the present disclosure on the proliferation of NCI-H358 cells.

IC50 [nM]	Compound
2	C=CC(=O)N1CCN2c3c(c(=O)n(-c4c(CC)cncc4CC)c4c(=O)n(-c5c(N)c(Cl)cc(Cl)c5F)c(C(F)(F)F)cc34)OCC[C@H]2C1 [Compound 6]
4	C=CC(=O)N1CCN2c3c(c(=O)n(-c4c(CC)ncnc4CC)c4c(=O)n(-c5c(N)c(Cl)cc(Cl)c5F)c(C(F)(F)F)cc34)OCC[C@H]2C1 [Compound 5]
0.9	C=CC(=O)N1CCN2c3c(c(=O)n(-c4c(C(C)C)ncnc4C(C)C)c4c(=O)n(-c5c(N)c(Cl)cc(Cl)c5F)c(C(F)(F)F)cc34)OCC[C@H]2C1 [Compound 4]

The molecules below were run on MIA-PA-CA-2 cells (assay: Anti-proliferation experiment of MIA-PA-CA-2 cells (CellTiter-Glo)). Conditions: Homo sapiens, MIA PaCa-2, 72 h, 3 days.
Type: cell-based
Method: DMEM culture medium, fetal bovine serum purchased from Biosera, and horse serum purchased from Gibco. CellTiter-Glo (chemiluminescence detection reagent for cell viability) reagent purchased from Promega. MIA-PA-CA-2 cell line purchased from Nanjing CoBioer Biotechnology Co., Ltd. EnVision multi-label analyzer (PerkinElmer).
MIA-PA-CA-2 cells were seeded in a white 96-well plate with 80 μL of cell suspension per well, which contained 1000 MIA-PA-CA-2 cells. The cell plate was incubated overnight in a carbon dioxide incubator.
as §1, with “diluted 5-fold” for “diluted 3-fold”, “the eighth” for “the ninth”, “to 26” for “to 304”, “to 0.13” for “to 1.52”, “for 3” for “for 5”
Using the equation (Sample−Min)/(Max−Min)*100% to convert the raw data into inhibition rate, and the value of IC50 might be obtained by curve fitting with four parameters (obtained by “log (inhibitor)/response—Variable scope” mode in GraphPad Prism software). Table 2 provides the inhibitory activity of the compounds of the present disclosure on the proliferation of MIA-PA-CA-2 cells.

IC50 [nM]	Compound
4	C=CC(=O)N1CCN2c3c(c(=O)n(-c4c(CC)cncc4CC)c4c(=O)n(-c5c(N)c(Cl)cc(Cl)c5F)c(C(F)(F)F)cc34)OCC[C@H]2C1 [Compound 6]
5	C=CC(=O)N1CCN2c3c(c(=O)n(-c4c(CC)ncnc4CC)c4c(=O)n(-c5c(N)c(Cl)cc(Cl)c5F)c(C(F)(F)F)cc34)OCC[C@H]2C1 [Compound 5]
1	C=CC(=O)N1CCN2c3c(c(=O)n(-c4c(C(C)C)ncnc4C(C)C)c4c(=O)n(-c5c(N)c(Cl)cc(Cl)c5F)c(C(F)(F)F)cc34)OCC[C@H]2C1 [Compound 4]
